From patent US20090036507A1, “BIS (CYANOPHENYL) METHYL-TRIAZOLE FOR USE IN PREVENTION OF BREAST CANCER” (priority 2001, published 2009)

Legend:
[1] = tested on: aromatase transgenic mice; assay: Effect on uterus and ovary histo-morphological features / normal endocrinological functions; assay type: in vivo
Method: The skin containing the mammary fat pads was fixed in 10% neutral buffered formalin for at least 24 h. The mammary glands were then dissected free from skin and processed for histological examinations (D. Medina, Preneoplastic lesions in mouse mammary tumorigenesis, Methods Cancer Res. 7 (1973) 3-53. 514). Routine section of mammary tissues, uterus and ovary were prepared after fixation by embedding in paraf.n, sectioning at 5 μM, and staining with H&E. To immunolocalize aromatase expression, 5 μM thick sections of aromatase and nontransgenic mammary gland tissue were used. After deparaffination and rehydration in xylene and ethanol, nonspecific sites were blocked by incubating with 1% normal goat serum in 0.05M Tris-HCl buffer. After decanting the reagents, the sections were covered with rabbit polyclonal antibody to rat aromatase synthetic peptide in 1:100 dilution (aromatase antibody was obtained from Dr. Evan Simpson, University of Texas Southwestern Medical Center, Dallas, Tex.; currently at Prince Henry's Institute, Clayton, Vic., Australia). The samples were incubated overnight at 4° C. in a humidied chamber. After three washings with 0.05M Tris-HCl buffer, the slides were incubated with alkaline phosphate conjugated secondary antibody for 30 min at room temperature and washings were repeated and sections were incubated with 1% fast red/naphthol AS phospate solution for 5 min. Sections were washed again and cover slipped and staining pattern was observed using light microscope.
Aged (about 16-20 weeks old) virgin aromatase transgenic females were used to investigate the effect of the aromatase inhibitor, COMPOUND I, as a chemopreventive agent against the preneoplastic and neoplastic changes induced in mammary glands of these mice. In this study, age-matched transgenic females were divided into four groups, one group (n=10) served as control group, the other groups received daily s.c. injection of COMPOUND I and three different doses; 0.25, 05, 1.0 μg COMPOUND I per animal in 100 μl of 0.3% hydroxy propyl cellulose (in phospate buffered saline). […]

[2] = tested on: follicle stimulating hormone; assay: Serum FSH levels (double antibody radioimmunoassay); assay type: in vivo, mice
Description: Aged (about 16-20 weeks old) virgin aromatase transgenic females were used to investigate the effect of the aromatase inhibitor, COMPOUND I, as a chemopreventive agent against the preneoplastic and neoplastic changes induced in mammary glands of these mice. In this study, age-matched transgenic females were divided into four groups, one group (n=10) served as control group, the […]; […] propyl cellulose (in phospate buffered saline). Control animals were given s.c. injection of vehicle. COMPOUND I was a gift from Drs. Ajay Bhatnagar and Dean Evans of Novartis Pharma (Basel, Switzerland). At the end of the 6-week treatment, mammary glands were removed and one gland each was used for histological analysis. All other glands were pooled then used for biochemical analysis as described below. Along with the mammary glands, uterus and ovaries was collected for biochemical and histological analyses.
Blood from both control and COMPOUND I-treated groups was collected by cardiac puncture directly before harvesting tissues. Serum concentrations of estradiol were measured by double antibody radioimmunoassay using commercially available reagents (Diagnostic Products Corp., Los Angeles, Calif.). […] FSH levels were measured using a standard double antibody radioimmunoassay. […] Differences in mean estradiol or FSH levels were compared, and significance was determined using paired Student's t-test.

estradiol = assay: Serum estradiol levels (double antibody radioimmunoassay); assay type: in vivo, mice; conditions: for circulating estrogen (estradiol) level: control 12.5 pg/ml, no significant difference
Method: (§1) Aged (about 16-20 weeks old) virgin aromatase transgenic females were used to investigate the effect of the aromatase inhibitor, COMPOUND I, as a chemopreventive agent against the preneoplastic and neoplastic changes induced in mammary glands of these mice. In this study, age-matched transgenic females were divided into four groups, one group (n=10) served as control group, the other groups received daily s.c. injection of COMPOUND I and three different doses; 0.25, 05, 1.0 μg COMPOUND I per animal in 100 μl of 0.3% hydroxy propyl cellulose (in phospate buffered saline). Control animals were given s.c. injection of vehicle. COMPOUND I was a gift from Drs. Ajay Bhatnagar and Dean Evans of Novartis Pharma (Basel, Switzerland). At the end of the 6-week treatment, mammary glands were removed and one gland each was used for histological analysis. All other glands were pooled then used for biochemical analysis as described below. Along with the mammary glands, uterus and ovaries was collected for biochemical and histological analyses.
Blood from both control and COMPOUND I-treated groups was collected by cardiac puncture directly before harvesting tissues. Serum concentrations of estradiol were measured by double antibody radioimmunoassay using commercially available reagents (Diagnostic Products Corp., Los Angeles, Calif.). […] Assaying increasing volumes of serum from 50 to 200 μl produced a displacement line parallel to the standard curve. Intra-assay and inter assay coefficients of variation averaged <10.0 and 6.7%, respectively. FSH levels were measured using a standard double antibody radioimmunoassay. Purified FSH obtained from NIH hormone resource was used as a standard. Differences in mean estradiol or FSH levels were compared, and significance was determined using paired Student's t-test.

[3] = tested on: aromatase transgenic mice; conditions: 5 μg/mouse/daily, previous studies; cited from earlier work
[4] = tested on: estrogen receptor (ER), progesterone receptor (PR), cyclin D1 and proliferating cell nuclear antigen (PCNA); assay: Western blot of ER, PR, cyclin D1 and PCNA protein levels in mammary tissues; assay type: in vivo, mice; conditions: 5 μg
Method: as §1
(§2) To isolate proteins from mammary gland and uterine tissue of both control and COMPOUND I-treated aromatase animals, the tissues were homogenized in lysis buffer. Equal amounts (60 ug) of protein from each sample was separated on a denaturing polyacrylamide gel and transferred to a nylon membrane. […]

lactoferrin, ER, and PR = assay: Western blot of lactoferrin, ER and PR protein levels in uterus tissue; assay type: in vivo, mice; conditions: 1.0 μg per day per animal
Method: as §1, §2

**Q.** For `N#Cc1ccc(C(c2ccc(C#N)cc2)n2cncn2)cc1` [COMPOUND I], which “effect on histo-morphological features of the uterus and ovary” value (“effect on histo-morphological features” for short) ([1]; 0.25 μg per day per animal) is on record?
**A.** Its value is “no effect”.

**Q.** What about the “effect on histo-morphological features” value ([1]; 0.5 μg per day per animal) of the same molecule?
**A.** Its value is “no effect”.

**Q.** And the “effect on histo-morphological features” value ([1]; 1 μg per day per animal)?
**A.** The value was “no effect”.

**Q.** And the “circulating FSH level” value ([2]; 0.5 μg, no significant difference to control)?
**A.** Its value is 200 ng/mL.

**Q.** What about the “circulating FSH level” value ([2]; 5.0 μg, difference to control very significant (paired Student's t-test)) of the same molecule?
**A.** The value was 480 ng/mL.

**Q.** And the “circulating estrogen (estradiol) level” value (estradiol; 0.25 μg per day per animal)?
**A.** Its value is 12.1 pg/mL.

**Q.** And the “circulating estrogen (estradiol) level” value (estradiol; 0.5 μg per day per animal)?
**A.** Its value is 12.5 pg/mL.

**Q.** And the “circulating levels of estradiol” value (estradiol; dose of 0.5 μg per day per animal as printed in last sentence of b103)?
**A.** The value was 2 pg/mL.

**Q.** And the “effect on normal endocrinological functions” value [3]?
**A.** Its value is “affected some normal endocrinological functions”.

**Q.** And the “level of PCNA, reduction” value [4]?
**A.** Its value is 50%.

**Q.** And the “decrease in expression of the uterine marker lactoferrin vs control” value (lactoferrin, ER, and PR)?
**A.** Its value is 1.8 fold.
